Laboratory results: PMC7026418, “The kinase polypharmacology landscape of clinical PARP inhibitors” (Scientific Reports, 2020)
Read-outs that look alike come from different tables or passages of the source.

Legend:
Assay in all cases: biochemical
Set-up in all cases: DiscoveRx KINOMEscan active site-directed competition binding; percent of control kinase bound to immobilised ligand
ROS1 = ROS1 (Homo sapiens, UniProt P08922)
EPHA8 = molecular target: T1, EPHA8 (Homo sapiens, UniProt P29322)
T1 sequence (P29322 1-1005): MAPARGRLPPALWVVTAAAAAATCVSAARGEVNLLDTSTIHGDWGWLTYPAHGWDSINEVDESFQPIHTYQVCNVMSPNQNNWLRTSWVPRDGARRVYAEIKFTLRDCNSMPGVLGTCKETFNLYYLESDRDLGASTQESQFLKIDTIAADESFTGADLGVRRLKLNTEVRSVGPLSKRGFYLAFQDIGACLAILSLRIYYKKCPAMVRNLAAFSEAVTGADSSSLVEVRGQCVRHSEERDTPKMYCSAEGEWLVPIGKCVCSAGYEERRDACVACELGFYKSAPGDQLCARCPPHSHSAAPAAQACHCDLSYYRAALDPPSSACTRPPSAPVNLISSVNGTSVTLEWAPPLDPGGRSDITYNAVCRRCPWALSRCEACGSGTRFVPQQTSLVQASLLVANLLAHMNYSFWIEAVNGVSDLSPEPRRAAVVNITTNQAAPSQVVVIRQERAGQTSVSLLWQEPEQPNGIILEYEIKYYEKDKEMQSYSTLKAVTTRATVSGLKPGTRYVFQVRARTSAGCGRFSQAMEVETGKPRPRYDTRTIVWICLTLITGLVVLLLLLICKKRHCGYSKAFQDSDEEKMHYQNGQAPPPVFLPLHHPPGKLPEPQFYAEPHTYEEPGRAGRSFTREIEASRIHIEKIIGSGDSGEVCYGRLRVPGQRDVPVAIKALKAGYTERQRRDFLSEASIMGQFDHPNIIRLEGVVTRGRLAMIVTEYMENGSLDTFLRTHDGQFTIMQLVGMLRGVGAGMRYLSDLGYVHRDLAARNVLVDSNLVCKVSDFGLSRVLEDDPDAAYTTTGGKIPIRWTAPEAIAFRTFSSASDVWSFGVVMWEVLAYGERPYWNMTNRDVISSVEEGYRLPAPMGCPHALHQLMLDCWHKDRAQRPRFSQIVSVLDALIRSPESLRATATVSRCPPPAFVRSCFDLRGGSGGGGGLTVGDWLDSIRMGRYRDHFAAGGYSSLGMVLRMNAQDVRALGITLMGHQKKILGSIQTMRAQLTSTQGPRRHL

TLK1 = molecular target: T2, TLK1 (Homo sapiens, UniProt Q9UKI8)
T2 sequence (Q9UKI8 1-766): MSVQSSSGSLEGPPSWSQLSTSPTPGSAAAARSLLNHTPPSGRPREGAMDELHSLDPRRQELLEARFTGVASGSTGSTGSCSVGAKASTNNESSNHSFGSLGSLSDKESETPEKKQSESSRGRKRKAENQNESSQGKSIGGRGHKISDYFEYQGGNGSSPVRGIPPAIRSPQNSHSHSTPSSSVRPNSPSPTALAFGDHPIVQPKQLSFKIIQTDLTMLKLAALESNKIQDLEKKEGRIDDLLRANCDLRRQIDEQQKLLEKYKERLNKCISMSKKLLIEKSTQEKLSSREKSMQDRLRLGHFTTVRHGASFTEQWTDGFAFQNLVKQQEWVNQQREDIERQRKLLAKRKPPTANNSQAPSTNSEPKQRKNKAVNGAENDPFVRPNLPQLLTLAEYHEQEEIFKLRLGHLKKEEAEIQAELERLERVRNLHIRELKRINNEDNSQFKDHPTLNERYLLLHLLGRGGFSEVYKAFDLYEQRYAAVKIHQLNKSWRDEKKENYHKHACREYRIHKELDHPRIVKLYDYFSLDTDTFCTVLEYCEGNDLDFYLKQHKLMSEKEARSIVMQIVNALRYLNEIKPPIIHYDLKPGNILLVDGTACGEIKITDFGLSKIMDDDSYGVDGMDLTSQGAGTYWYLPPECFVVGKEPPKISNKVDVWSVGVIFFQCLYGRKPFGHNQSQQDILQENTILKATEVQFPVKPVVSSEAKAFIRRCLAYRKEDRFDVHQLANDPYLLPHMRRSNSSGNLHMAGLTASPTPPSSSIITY

FLT3(D835H) = molecular target: T3, FLT3(D835H) (Homo sapiens, UniProt P36888, D835H)
T3 sequence (P36888 1-993 D835H): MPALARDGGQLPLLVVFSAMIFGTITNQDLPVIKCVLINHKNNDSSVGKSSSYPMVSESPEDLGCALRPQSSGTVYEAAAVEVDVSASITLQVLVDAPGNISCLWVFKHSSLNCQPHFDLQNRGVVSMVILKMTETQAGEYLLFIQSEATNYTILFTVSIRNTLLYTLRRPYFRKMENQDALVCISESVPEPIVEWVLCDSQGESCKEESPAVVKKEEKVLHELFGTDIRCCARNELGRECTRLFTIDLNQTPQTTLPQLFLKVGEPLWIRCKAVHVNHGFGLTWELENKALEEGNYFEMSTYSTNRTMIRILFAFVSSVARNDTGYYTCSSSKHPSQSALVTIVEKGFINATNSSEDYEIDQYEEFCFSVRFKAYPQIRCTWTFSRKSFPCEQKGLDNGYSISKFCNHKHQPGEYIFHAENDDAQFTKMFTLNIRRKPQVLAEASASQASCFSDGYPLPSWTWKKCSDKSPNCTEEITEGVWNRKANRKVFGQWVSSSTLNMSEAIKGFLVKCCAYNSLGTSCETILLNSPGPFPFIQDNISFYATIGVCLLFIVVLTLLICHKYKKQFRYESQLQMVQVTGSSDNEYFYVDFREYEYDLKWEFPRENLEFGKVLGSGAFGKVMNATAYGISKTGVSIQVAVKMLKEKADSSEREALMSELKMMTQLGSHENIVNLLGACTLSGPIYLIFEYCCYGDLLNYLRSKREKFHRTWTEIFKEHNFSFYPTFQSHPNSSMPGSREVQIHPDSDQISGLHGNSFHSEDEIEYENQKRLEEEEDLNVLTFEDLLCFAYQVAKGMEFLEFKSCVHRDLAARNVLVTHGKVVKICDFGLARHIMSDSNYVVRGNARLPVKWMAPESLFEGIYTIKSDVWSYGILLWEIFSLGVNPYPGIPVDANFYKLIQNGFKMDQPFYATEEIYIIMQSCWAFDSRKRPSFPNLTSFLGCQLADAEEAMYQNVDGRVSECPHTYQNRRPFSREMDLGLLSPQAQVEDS

[1] = read-out: Talazoparib (BMN 673) / %Ctrl @ 10000nM
[2] = read-out: Olaparib / %Ctrl @ 10000nM
[3] = read-out: Rucaparib / %Ctrl @ 10000nM, binding competition, % of control
[4] = read-out: Niraparib (MK-4827) / %Ctrl @ 10000nM

Sequence of ROS1 (P08922 whole entry): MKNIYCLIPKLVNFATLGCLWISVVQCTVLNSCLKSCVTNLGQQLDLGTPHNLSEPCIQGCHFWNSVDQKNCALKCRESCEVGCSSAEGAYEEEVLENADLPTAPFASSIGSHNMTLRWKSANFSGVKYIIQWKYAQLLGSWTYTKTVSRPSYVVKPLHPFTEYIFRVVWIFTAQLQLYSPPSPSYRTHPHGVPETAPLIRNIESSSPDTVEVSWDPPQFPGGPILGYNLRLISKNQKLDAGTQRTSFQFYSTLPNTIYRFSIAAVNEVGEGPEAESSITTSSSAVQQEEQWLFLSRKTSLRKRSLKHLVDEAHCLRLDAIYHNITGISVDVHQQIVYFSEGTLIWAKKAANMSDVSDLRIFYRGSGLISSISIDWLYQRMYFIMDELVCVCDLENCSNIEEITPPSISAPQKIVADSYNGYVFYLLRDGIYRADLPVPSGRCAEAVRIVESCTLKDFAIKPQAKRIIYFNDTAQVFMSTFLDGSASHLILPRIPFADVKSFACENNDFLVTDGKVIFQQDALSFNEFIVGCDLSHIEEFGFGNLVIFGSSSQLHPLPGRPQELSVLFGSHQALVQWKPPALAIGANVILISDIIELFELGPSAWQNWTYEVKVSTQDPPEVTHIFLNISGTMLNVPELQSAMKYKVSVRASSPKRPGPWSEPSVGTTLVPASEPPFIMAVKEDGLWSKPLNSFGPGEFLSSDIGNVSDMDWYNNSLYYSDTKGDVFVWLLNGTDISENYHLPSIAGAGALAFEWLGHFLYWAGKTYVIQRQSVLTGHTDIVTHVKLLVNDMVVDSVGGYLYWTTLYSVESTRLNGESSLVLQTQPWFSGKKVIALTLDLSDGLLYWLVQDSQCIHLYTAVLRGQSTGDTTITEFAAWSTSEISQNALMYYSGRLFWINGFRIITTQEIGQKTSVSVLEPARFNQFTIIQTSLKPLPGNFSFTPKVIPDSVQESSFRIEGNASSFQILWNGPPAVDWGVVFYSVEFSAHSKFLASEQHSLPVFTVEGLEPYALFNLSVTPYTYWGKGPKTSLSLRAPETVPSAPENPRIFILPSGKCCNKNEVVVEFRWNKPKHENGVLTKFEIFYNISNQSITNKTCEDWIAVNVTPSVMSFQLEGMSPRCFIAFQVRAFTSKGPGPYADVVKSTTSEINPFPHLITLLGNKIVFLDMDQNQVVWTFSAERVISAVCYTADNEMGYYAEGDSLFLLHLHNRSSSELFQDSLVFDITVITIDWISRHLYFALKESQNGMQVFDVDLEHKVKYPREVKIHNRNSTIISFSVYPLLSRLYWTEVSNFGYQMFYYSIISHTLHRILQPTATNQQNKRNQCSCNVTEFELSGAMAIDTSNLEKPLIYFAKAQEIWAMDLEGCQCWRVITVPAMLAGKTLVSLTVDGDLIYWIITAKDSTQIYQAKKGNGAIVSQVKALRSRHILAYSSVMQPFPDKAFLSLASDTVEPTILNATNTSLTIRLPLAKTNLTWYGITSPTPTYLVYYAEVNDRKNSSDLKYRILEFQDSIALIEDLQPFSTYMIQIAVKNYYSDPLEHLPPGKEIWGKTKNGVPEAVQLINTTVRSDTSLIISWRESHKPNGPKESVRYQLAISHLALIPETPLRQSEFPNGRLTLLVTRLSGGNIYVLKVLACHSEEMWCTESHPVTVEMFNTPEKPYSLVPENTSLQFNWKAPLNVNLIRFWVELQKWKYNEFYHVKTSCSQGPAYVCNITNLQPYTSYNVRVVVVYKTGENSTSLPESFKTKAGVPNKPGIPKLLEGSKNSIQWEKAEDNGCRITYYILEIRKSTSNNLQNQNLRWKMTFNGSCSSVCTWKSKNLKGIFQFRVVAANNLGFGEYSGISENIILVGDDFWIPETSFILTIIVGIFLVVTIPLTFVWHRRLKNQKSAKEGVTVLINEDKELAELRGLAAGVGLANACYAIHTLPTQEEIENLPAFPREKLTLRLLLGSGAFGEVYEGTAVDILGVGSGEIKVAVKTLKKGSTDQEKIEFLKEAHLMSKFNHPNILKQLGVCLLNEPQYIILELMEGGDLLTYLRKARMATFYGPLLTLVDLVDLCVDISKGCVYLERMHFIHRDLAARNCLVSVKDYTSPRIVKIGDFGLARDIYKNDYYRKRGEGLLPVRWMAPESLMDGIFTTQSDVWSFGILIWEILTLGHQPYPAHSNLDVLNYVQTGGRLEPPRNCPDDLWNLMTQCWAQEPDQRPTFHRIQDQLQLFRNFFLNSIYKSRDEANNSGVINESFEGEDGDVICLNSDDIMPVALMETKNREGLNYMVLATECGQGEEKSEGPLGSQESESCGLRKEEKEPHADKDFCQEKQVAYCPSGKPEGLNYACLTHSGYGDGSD

## Cn1ncnc1[C@H]1c2n[nH]c(=O)c3cc(F)cc(c23)N[C@@H]1c1ccc(F)cc1 [Talazoparib]
ROS1; [1]
  percent of control binding at 10 µM: 94%
EPHA8; [1]
  percent of control binding at 10 µM: 96%
TLK1; [1]
  percent of control binding at 10 µM: 99%
FLT3(D835H); [1]
  percent of control binding at 10 µM: 89%

## O=C(c1cc(Cc2n[nH]c(=O)c3ccccc23)ccc1F)N1CCN(C(=O)C2CC2)CC1 [Olaparib]
ROS1; [2]
  percent of control binding at 10 µM: 97%
EPHA8; [2]
  percent of control binding at 10 µM: 98%
TLK1; [2]
  percent of control binding at 10 µM: 94%
FLT3(D835H); [2]
  percent of control binding at 10 µM: 91%

## CNCc1ccc(-c2[nH]c3cc(F)cc4c3c2CCNC4=O)cc1 [Rucaparib]
ROS1; [3]
  percent of control binding at 10 µM: 82%
EPHA8; [3]
  percent of control binding at 10 µM: 100%
TLK1; [3]
  percent of control binding at 10 µM: 94%
FLT3(D835H); binding competition, % of control
  Rucaparib / %Ctrl @ 10000nM: 42%

## NC(=O)c1cccc2cn(-c3ccc([C@@H]4CCCNC4)cc3)nc12 [Niraparib]
ROS1; [4]
  percent of control binding at 10 µM: 80%
EPHA8; [4]
  percent of control binding at 10 µM: 80%
TLK1; [4]
  percent of control binding at 10 µM: 85%
FLT3(D835H); [4]
  percent of control binding at 10 µM: 83%
